Results reported in patent publication US20230382925A1, “MODULATORS OF CYSTIC FIBROSIS TRANSMEMBRANE CONDUCTANCE REGULATOR” (VERTEX PHARMACEUTICALS INCORPORATED, priority 2020, published 2023).
Like-named read-outs stand apart in the source and are kept apart here.

Biological target: CFTR (Homo sapiens, UniProt P13569)
Test: Membrane Potential Dye, Enteroid Assay B
Format: cell-based
Summary of the method: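 Activity given as % of a triple-combination reference (1 μM and 3 μM correctors, 300 nM acute potentiator). Enteroids were preincubated 18-24 h with compound; chloride efflux then measured 15 min by methyl oxonol fluorescence after forskolin/IBMX/Compound III stimulation in chloride-free buffer containing CaCCinh-A01 and Chicago Sky Blue.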

[1] = Table 10, read-out: Ent. B EC50

Chain of CFTR (P13569 with tags, fused parts or gaps DEL508-508): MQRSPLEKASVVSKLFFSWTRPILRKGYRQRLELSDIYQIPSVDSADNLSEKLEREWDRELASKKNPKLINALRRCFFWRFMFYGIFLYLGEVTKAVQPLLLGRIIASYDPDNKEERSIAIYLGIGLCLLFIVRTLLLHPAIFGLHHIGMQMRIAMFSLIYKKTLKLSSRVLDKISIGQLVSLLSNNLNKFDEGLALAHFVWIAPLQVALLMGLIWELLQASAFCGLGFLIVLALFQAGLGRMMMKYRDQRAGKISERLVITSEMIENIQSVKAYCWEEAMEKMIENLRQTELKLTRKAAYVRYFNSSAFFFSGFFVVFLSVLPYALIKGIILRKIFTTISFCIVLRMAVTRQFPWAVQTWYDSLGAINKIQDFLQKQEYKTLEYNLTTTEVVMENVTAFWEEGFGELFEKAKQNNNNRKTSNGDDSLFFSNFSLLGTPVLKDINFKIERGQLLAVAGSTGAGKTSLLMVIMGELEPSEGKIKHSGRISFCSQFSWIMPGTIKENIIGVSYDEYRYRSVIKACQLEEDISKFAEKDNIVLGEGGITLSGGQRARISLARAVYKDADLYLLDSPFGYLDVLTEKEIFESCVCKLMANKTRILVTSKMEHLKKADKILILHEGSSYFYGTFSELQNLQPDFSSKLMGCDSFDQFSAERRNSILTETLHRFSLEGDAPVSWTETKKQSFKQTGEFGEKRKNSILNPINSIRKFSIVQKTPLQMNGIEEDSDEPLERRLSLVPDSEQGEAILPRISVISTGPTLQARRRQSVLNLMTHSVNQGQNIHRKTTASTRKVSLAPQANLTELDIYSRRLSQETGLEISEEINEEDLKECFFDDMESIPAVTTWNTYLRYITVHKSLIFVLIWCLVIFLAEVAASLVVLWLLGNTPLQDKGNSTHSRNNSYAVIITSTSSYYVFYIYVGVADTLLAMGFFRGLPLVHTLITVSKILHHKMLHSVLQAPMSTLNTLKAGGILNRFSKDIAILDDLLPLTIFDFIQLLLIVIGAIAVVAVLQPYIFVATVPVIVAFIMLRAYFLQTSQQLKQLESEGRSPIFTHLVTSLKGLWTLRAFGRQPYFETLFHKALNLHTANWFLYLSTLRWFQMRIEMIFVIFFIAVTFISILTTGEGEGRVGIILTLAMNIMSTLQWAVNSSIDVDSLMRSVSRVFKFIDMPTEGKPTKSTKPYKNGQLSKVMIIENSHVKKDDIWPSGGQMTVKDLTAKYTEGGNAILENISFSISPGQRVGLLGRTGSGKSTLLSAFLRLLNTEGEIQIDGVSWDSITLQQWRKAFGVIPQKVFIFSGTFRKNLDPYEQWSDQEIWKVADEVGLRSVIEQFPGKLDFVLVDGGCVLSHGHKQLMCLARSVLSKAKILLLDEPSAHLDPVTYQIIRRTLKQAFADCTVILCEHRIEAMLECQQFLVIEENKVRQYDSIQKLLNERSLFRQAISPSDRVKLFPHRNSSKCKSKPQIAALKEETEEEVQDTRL

Ent. B Max Activity (%) (Table 9) | EC50 (Table 9, read-out: Ent. B EC50) [nM] | Ent. B Max Activity (%) (Table 10) | EC50 [1] [nM] | Structure (SMILES) | further results
+++ (+++ is >60%) | < 1000 |  |  | COC(=O)N[C@H]1C[C@@H](N2C(=O)c3cccc(c3)S(=O)(=O)Nc3nc(cc(-c4c(C)cccc4C)n3)OC[C@H]2CC(C)(C)C)C1 [Compound 472] | 
+++ (+++ is >60%) | < 1000 |  |  | CC(=O)N[C@H]1C[C@@H](N2C(=O)c3cccc(c3)S(=O)(=O)Nc3nc(cc(-c4c(C)cccc4C)n3)OC[C@H]2CC(C)C)C1 [Compound 366] | 
 |  | +++ (+++ is >60%) | < 1000 | Cc1cccc(C)c1-c1cc2nc(n1)NS(=O)(=O)c1cccc(c1)C(=O)N(C1CC3(C1)CC(O)(CC(C)C)C3)[C@H](CC(C)(C)C)CO2 (stereo in doubt) [Compound 405] | 
 |  | +++ (+++ is >60%) | < 1000 | Cc1cccc(C)c1-c1cc2nc(n1)NS(=O)(=O)c1cccc(c1)C(=O)N(C1CC3(C1)CC(C(C)(C)O)C3)[C@H](CCC(C)(C)C)CO2 (single isomer, unassigned) [Compound 8] | 
+++ (+++ is >60%) | < 1000 |  |  | Cc1cccc(C)c1-c1cc2nc(n1)NS(=O)(=O)c1cccc(c1)C(=O)N(C1CC3(CC(N)C3)C1)[C@H](CC(C)(C)C)CO2 (stereo partly drawn) [Compound 463] | 
 |  | ++ (++ is 30-60%) | < 1000 | Cc1cccc(C)c1-c1cc2nc(n1)NS(=O)(=O)c1cccc(c1)C(=O)N(C1CC3(COC(=O)N3)C1)[C@H](CC(C)(C)C)CO2 (single isomer, unassigned) [Compound 176] | 
+++ (+++ is >60%) | < 1000 |  |  | Cc1cccc(C)c1-c1cc2nc(n1)NS(=O)(=O)c1cccc(c1)C(=O)N(C1CC3(CC(N(C)C)C3)C1)[C@H](CC(C)(C)C)CO2 (stereo partly drawn) [Compound 462] | 
 |  | ++ (++ is 30-60%) | < 1000 | CCC(=O)N(C)C1CC(N2C(=O)c3cccc(c3)S(=O)(=O)Nc3nc(cc(-c4c(C)cccc4C)n3)OC[C@H]2CC(C)(C)C)C1 (single isomer, unassigned) [Compound 240] | 
 |  | ++ (++ is 30-60%) | < 1000 | Cc1cccc(C)c1-c1cc2nc(n1)NS(=O)(=O)c1cccc(c1)C(=O)N(C1CC3(CC3)C1)[C@H](CCC(C)(C)O)CO2 [Compound 52, (11R)-6-(2,6-Dimethylphenyl)-11-(3-hydroxy-3-methyl-butyl)-2,2-dioxo-12-spiro[2.3]hexan-5-yl-9-oxa-2λ^6-thia-3,5,12,19-tetrazatricyclo[12.3.1.14,8]nonadeca-1(18),4(19),5,7,14,16-hexaen-13-one] | 
+++ (+++ is >60%) | < 1000 |  |  | Cc1cccc(C)c1-c1cc2nc(n1)NS(=O)(=O)c1cccc(c1)C(=O)N([C@H]1C[C@@H](CN(C)C)C1)[C@H](CC(C)C)CO2 (single isomer, unassigned) [Compound 106] | 

Further lines, the compound ahead of its results:

Structure (SMILES) | Ent. B Max Activity (%) (Table 9) | EC50 (Table 9, read-out: Ent. B EC50) [nM] | Ent. B Max Activity (%) (Table 10) | EC50 [1] [nM] | further results
COC1(C)CCN(C(=O)C2CC(N3C(=O)c4cccc(c4)S(=O)(=O)Nc4nc(cc(-c5c(C)cccc5C)n4)OC[C@H]3CC(C)C)C2)CC1 (stereo partly drawn) [Compound 309] |  |  |  |  | Ent. B Max Activity (%): +++ (+++ is >60%); EC50 (read-out: Ent. B EC50): < 1000 nM
Cc1cccc(C)c1-c1cc2nc(n1)NS(=O)(=O)c1cccc(c1)C(=O)N(C1CC3(C1)CN(C(C)C)C3)[C@H](CC1(C(F)(F)F)CC1)CO2 [Compound 132, (11R)-6-(2,6-Dimethylphenyl)-12-(2-isopropyl-2-azaspiro[3.3]heptan-6-yl)-2,2-dioxo-11-[[1-(trifluoromethyl)cyclopropyl]methyl]-9-oxa-2λ^6-thia-3,5,12,19-tetrazatricyclo[12.3.1.14,8]nonadeca-1(18),4(19),5,7,14,16-hexaen-13-one] | +++ (+++ is >60%) | < 1000 |  |  | 
Cc1cccc(C)c1-c1cc2nc(n1)NS(=O)(=O)c1cccc(c1)C(=O)N(C1CC3(COC(=O)N3)C1)[C@H](CC(C)C)CO2 (stereo partly drawn) [Compound 256] |  |  | ++ (++ is 30-60%) | < 1000 | 
COC1CC(N2C(=O)c3cccc(c3)S(=O)(=O)Nc3nc(cc(-c4c(C)cccc4C)n3)OC[C@H]2CC2(C(F)(F)F)CC2)C1 (stereo in doubt) [Compound 465] |  |  |  |  | Ent. B Max Activity (%): +++ (+++ is >60%); EC50 (read-out: Ent. B EC50): < 1000 nM
COCCn1cc(N2C(=O)c3cccc(c3)S(=O)(=O)Nc3nc(cc(-c4c(C)cccc4C)n3)OC[C@H]2CC(C)(C)C)cn1 [Compound 225] |  |  | +++ (+++ is >60%) | < 1000 | 
CNC1CC2(C1)CC(N1C(=O)c3cccc(c3)S(=O)(=O)Nc3nc(cc(-c4c(C)cccc4C)n3)OC[C@H]1CC(C)C)C2 (stereo in doubt) [Compound 282] | +++ (+++ is >60%) | < 1000 |  |  | 
Cc1cccc(C)c1-c1cc2nc(n1)NS(=O)(=O)c1cccc(c1)C(=O)N(C1CC3(CCN(CC(F)F)CC3)C1)[C@H](CC(C)C)CO2 [Compound 322] |  |  |  |  | Ent. B Max Activity (%): +++ (+++ is >60%); EC50 (read-out: Ent. B EC50): < 1000 nM
Cc1cccc(C)c1-c1cc2nc(n1)NS(=O)(=O)c1cccc(c1)C(=O)N(C1CC(C)(OC(F)(F)F)C1)[C@H](CC(C)C)CO2 (stereo partly drawn) [Compound 50, (11R)-6-(2,6-dimethylphenyl)-11-isobutyl-12-[3-methyl-3-(trifluoromethoxy)cyclobutyl]-2,2-dioxo-9-oxa-2λ^6-thia-3,5,12,19-tetrazatricyclo[12.3.1.14,8]nonadeca-1(18),4(19),5,7,14,16-hexaen-13-one] |  |  | ++ (++ is 30-60%) | < 1000 | 
Cc1cccc(C)c1-c1cc2nc(n1)NS(=O)(=O)c1cccc(c1)C(=O)N(c1cnn(C(C)C)c1)[C@H](CC(C)(C)C)CO2 [Compound 228] |  |  | +++ (+++ is >60%) | < 1000 | 
Cc1cccc(C)c1-c1cc2nc(n1)NS(=O)(=O)c1cccc(c1)C(=O)N(C1CC(N[C@H]3CC[C@@H](O)CC3)C1)[C@H](CC(C)C)CO2 (stereo partly drawn) [Compound 371] | +++ (+++ is >60%) | 1000 to 3000 |  |  | 
Cc1cccc(C)c1-c1cc2nc(n1)NS(=O)(=O)c1cccc(c1)C(=O)N(C1CC3(CCN(C(=O)COC(C)C)CC3)C1)[C@H](CC(C)C)CO2 [Compound 458] | +++ (+++ is >60%) | < 1000 |  |  | 
Cc1cccc(C)c1-c1cc2nc(n1)NS(=O)(=O)c1cccc(c1)C(=O)N([C@H]1C[C@@H](N3C[C@@H](O)CC3=O)C1)[C@H](CC(C)C)CO2 (stereo in doubt) [Compound 370] |  |  | ++ (++ is 30-60%) | < 1000 | 
Cc1cccc(C)c1-c1cc2nc(n1)NS(=O)(=O)c1cccc(c1)C(=O)N(C1CC3(CCN(CCOC4CC4)CC3)C1)[C@H](CC(C)C)CO2 [Compound 278] | +++ (+++ is >60%) | < 1000 |  |  | 
Cc1cccc(C)c1-c1cc2nc(n1)NS(=O)(=O)c1cccc(n1)C(=O)N([C@H]1C[C@@H](C(C)(C)O)C1)[C@H](CC(C)(C)C)CO2 [Compound 410] |  |  | +++ (+++ is >60%) | < 1000 | 
Cc1cccc(C)c1-c1cc2nc(n1)NS(=O)(=O)c1cccc(c1)C(=O)N(C1CC3(CCN(CCOC(C)C)CC3)C1)[C@H](CC(C)(C)C)CO2 [Compound 215] |  |  |  |  | Ent. B Max Activity (%): +++ (+++ is >60%); EC50 (read-out: Ent. B EC50): < 1000 nM
Cc1cccc(C)c1-c1cc2nc(n1)NS(=O)(=O)c1cccc(n1)C(=O)N(C1CC3(C1)CC(C(C)(C)O)C3)[C@H](CC(C)(C)C)CO2 (single isomer, unassigned) [Compound 162] |  |  | +++ (+++ is >60%) | < 1000 | 
Cc1cccc(C)c1-c1cc2nc(n1)NS(=O)(=O)c1cc(n(C)n1)C(=O)N(C1CC3(C1)CC(C(C)(C)O)C3)[C@H](CC(C)(C)C)CO2 (stereo partly drawn) [Compound 436] |  |  | +++ (+++ is >60%) | < 1000 | 
Cc1cccc(C)c1-c1cc2nc(n1)NS(=O)(=O)c1cccc(c1)C(=O)N(C1CC(N[C@H]3CC[C@H](CO)CC3)C1)[C@H](CC(C)C)CO2 (stereo partly drawn) [Compound 373] | +++ (+++ is >60%) | < 1000 |  |  | 
COC1CC(N2C(=O)c3cccc(c3)S(=O)(=O)Nc3nc(cc(-c4c(C)cccc4C)n3)OC[C@H]2CC(C)C)C1 (stereo partly drawn) [Compound 467] |  |  |  |  | Ent. B Max Activity (%): +++ (+++ is >60%); EC50 (read-out: Ent. B EC50): < 1000 nM
Cc1cccc(C)c1-c1cc2cc(n1)NS(=O)(=O)c1cccc(n1)C(=O)N(C1CC3(CC3)C1)[C@H](CC1(C(F)(F)F)CC1)CO2 [Compound 425] | +++ (+++ is >60%) | < 1000 |  |  | 
Cc1cccc(C)c1-c1cc2nc(n1)NS(=O)(=O)c1cccc(c1)C(=O)N([C@H]1C[C@@H](NC(=O)OC(C)C)C1)[C@H](CC(C)C)CO2 (single isomer, unassigned) [Compound 64] |  |  |  |  | Ent. B Max Activity (%): +++ (+++ is >60%); EC50 (read-out: Ent. B EC50): < 1000 nM
COCCNC1CC2(C1)CC(N1C(=O)c3cccc(c3)S(=O)(=O)Nc3nc(cc(-c4c(C)cccc4C)n3)OC[C@H]1CC(C)C)C2 (stereo in doubt) [Compound 287] | +++ (+++ is >60%) | < 1000 |  |  | 
Cc1cccc(C)c1-c1cc2nc(n1)NS(=O)(=O)c1cccc(c1)C(=O)N([C@H]1C[C@H](N)C1)[C@H](CC1(C(F)(F)F)CC1)CO2 (single isomer, unassigned) [Compound 57] | +++ (+++ is >60%) | < 1000 |  |  | 
